Where two headings read alike, the source gives them in different places.

In the experiment the target is human GPR52 (Homo sapiens, UniProt Q9Y2T5). The experiment in a line: GPR52 Agonist Functional cAMP Assay.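 For all read-outs here: HEKf cells transduced with GPR52 BacMam for 24 h, 2000 per well, exposed to compounds 30 min at 37° C with 0.5 mM IBMX, cAMP read by HTRF.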 The conditions noted are these: for EC50: pEC50 average, HEKf cells infected with human GPR52 BacMam virus, cAMP HTRF, 30 min at 37° C.
Setting [1] is: maximal response normalised to DMSO (0%) and maximal compound 7m (J. Med. Chem., 2014, 57, 5226) response (100%).

Chain of human GPR52 (Q9Y2T5 whole entry): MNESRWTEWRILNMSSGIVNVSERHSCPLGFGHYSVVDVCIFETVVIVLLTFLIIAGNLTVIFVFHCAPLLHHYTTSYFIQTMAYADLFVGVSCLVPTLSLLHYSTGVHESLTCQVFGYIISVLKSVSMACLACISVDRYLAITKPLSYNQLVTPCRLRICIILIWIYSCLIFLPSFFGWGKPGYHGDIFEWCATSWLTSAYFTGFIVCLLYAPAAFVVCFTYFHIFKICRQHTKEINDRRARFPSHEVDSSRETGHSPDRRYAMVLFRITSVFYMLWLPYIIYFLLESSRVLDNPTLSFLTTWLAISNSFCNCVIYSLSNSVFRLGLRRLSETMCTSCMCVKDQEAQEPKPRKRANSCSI
Procedure: Following BacMam infection, cells were pelleted by centrifugation (335 g, 5 min), resuspended in cell freezing medium (Sigma) and frozen at −150° C. until required. On experiment day, 25 nL GPR52 compound dilutions, prepared in DMSO, were stamped onto proxiplates (PerkinElmer) by a LabCyte ECHO acoustic dispenser. Frozen cells were thawed and resuspended in assay stimulation buffer (Cisbio) containing 0.5 mM 3-iso-butyl-1-methylxanthine (IBMX, Sigma) to achieve a density of 2000 cells per well. 10 μl cells were added to assay plates using a Multidrop Combi Reagent Dispenser (ThermoFisher) before centrifugation (335 g, 1 min). Cells were incubated with compounds at 37° C. for 30 min prior to addition of cAMP detection reagents (HiRange cAMP kit, Cisbio) which were prepared according to the manufacturer's instructions. Plates were shaken for 1 h at room temperature before reading on a PHERAstar FS plate reader (BMG Labtech) using standard HTRF settings.

Molecule `O=C1NCCc2c1cnn2-c1ccnc(Cc2cc(F)cc(F)c2)c1` [Example 21, 1-(2-(3,5-difluorobenzyl)pyridin-4-yl)-1,5,6,7-tetrahydro-4H-pyrazolo[4,3-c]pyridin-4-one] showed a half-maximal effective concentration (EC50) of 1260 nM. This molecule showed an Emax under setting [1] of 100%.
`CC(C)c1cc(F)cc(Cc2cc(-n3ncc4c3CCNC4=O)ccn2)c1` [Example 71, 1-(2-(3-fluoro-5-isopropylbenzyl)pyridin-4-yl)-1,5,6,7-tetrahydro-4H-pyrazolo[4,3-c]pyridin-4-one]: the EC50 was 20 nM. Moreover, under setting [1], the maximal response (Emax) was 91%.
For the molecule `COc1ccc(Cc2cc(-n3nc(C)c4c3CCNC4=O)ccn2)cn1` [Example 92, 1-(2-((6-methoxypyridin-3-yl)methyl)pyridin-4-yl)-3-methyl-1,5,6,7-tetrahydro-4H-pyrazolo[4,3-c]pyridin-4-one], the midpoint of the response, the EC50, lay at 631 nM. Further, the Emax under setting [1] turned out to be 74%.
Molecule `Cc1nn(-c2cc(C(O)c3cc(F)cc(C(F)(F)F)c3)ccn2)c2c1C(=O)NCC2` (single isomer, unassigned) [118 Isomer 1, 1-(4-((3-fluoro-5-(trifluoromethyl)phenyl)(hydroxy)methyl)pyridin-2-yl)-3-methyl-1,5,6,7-tetrahydro-4H-pyrazolo[4,3-c]pyridin-4-one] showed a concentration for a half-maximal effect (EC50) of 126 nM. In addition, the maximal response (Emax) under setting [1] turned out to be 94%.
For `O=C1NCCc2c1cnn2-c1ccnc(Cc2ccc(C(F)(F)F)cc2)c1` [Example 32, 1-(2-(4-(trifluoromethyl)benzyl)pyridin-4-yl)-1,5,6,7-tetrahydro-4H-pyrazolo[4,3-c]pyridin-4-one], in that order: 398 nM and 61%.
With `O=C1NCCCc2nn(-c3cc(Cc4cccc(C(F)(F)F)c4)ccn3)nc21` [Example 45, 2-(4-(3-(trifluoromethyl)benzyl)pyridin-2-yl)-5,6,7,8-tetrahydro-[1,2,3]triazolo[4,5-c]azepin-4(2H)-one], a half-maximal response (EC50) required 631 nM. Under setting [1], this molecule displayed an Emax of 75%.
For the molecule `Cc1nn(-c2ccnc(Cc3ccc(OC(F)F)nc3)c2)c2c1C(=O)NCC2` [Example 94, 1-(2-((6-(difluoromethoxy)pyridin-3-yl)methyl)pyridin-4-yl)-3-methyl-1,5,6,7-tetrahydro-4H-pyrazolo[4,3-c]pyridin-4-one], a half-maximal effect (EC50) was put at 398 nM. Besides, under setting [1], the maximum response (Emax) amounted to 78%.
The corresponding values for `Cc1nn(-c2ccnc(Cc3ccc(OC(F)F)c(F)c3)c2)c2c1C(=O)NCC2` [Example 81, 1-(2-(4-(difluoromethoxy)-3-fluorobenzyl)pyridin-4-yl)-3-methyl-1,5,6,7-tetrahydro-4H-pyrazolo[4,3-c]pyridin-4-one] are 10 nM and 70%.
`O=C1NCCc2c1cnn2-c1ccnc(C(F)c2cc(F)cc(C(F)(F)F)c2)c1` (stereo not drawn) [Example 37, 1-(2-(fluoro(3-fluoro-5-(trifluoromethyl)phenyl)methyl)pyridin-4-yl)-1,5,6,7-tetrahydro-4H-pyrazolo[4,3-c]pyridin-4-one] showed a 50% effective concentration (EC50) of 126 nM. The Emax under setting [1] came to 93%.
Molecule `Cc1cc(F)cc(Cc2cc(-n3ncc4c3CCNC4=O)ccn2)c1` [Example 26, 1-(2-(3-fluoro-5-methylbenzyl)pyridin-4-yl)-1,5,6,7-tetrahydro-4H-pyrazolo[4,3-c]pyridin-4-one] gave an EC50 of 79.4 nM. The same molecule displayed a maximal effect (Emax) under setting [1] of 95%.
In the case of `O=C1NCCc2nn(-c3cc(Cc4cccc(C(F)(F)F)c4)ccn3)nc21` [Example 43, 2-(4-(3-(trifluoromethyl)benzyl)pyridin-2-yl)-2,5,6,7-tetrahydro-4H-[1,2,3]triazolo[4,5-c]pyridin-4-one], the EC50 is 251 nM. The maximum response (Emax) under setting [1] worked out at 86%.
For `COCCN1CCc2c(cnn2-c2cc(Cc3cc(F)cc(C(F)(F)F)c3)ccn2)C1=O` [Example 106, 1-(4-(3-fluoro-5-(trifluoromethyl)benzyl)pyridin-2-yl)-5-(2-methoxyethyl)-1,5,6,7-tetrahydro-4H-pyrazolo[4,3-c]pyridin-4-one], the EC50 is 31.6 nM. Under setting [1], this molecule registered an Emax of 86%.
In turn, `Cc1cc(Cc2ccnc(-n3ncc4c3CCNC4=O)c2)cnc1F` [Example 6, 1-(4-((6-fluoro-5-methylpyridin-3-yl)methyl)pyridin-2-yl)-1,5,6,7-tetrahydro-4H-pyrazolo[4,3-c]pyridin-4-one] gave a half-maximal effective concentration (EC50) of 501 nM. The Emax under setting [1] was determined as 82%.
For `Cc1nn(-c2ccnc(Cc3cc(F)c(F)c(F)c3)c2)c2c1C(=O)NCC2` [Example 77, 3-methyl-1-(2-(3,4,5-trifluorobenzyl)pyridin-4-yl)-1,5,6,7-tetrahydro-4H-pyrazolo[4,3-c]pyridin-4-one], the response was half-maximal at 15.8 nM (EC50). The molecule also gave a maximum response (Emax) under setting [1] of 95%.
`O=C1NCCc2c1c(CO)nn2-c1ccnc(Cc2cc(F)cc(C(F)(F)F)c2)c1` [Example 114, 1-(2-(3-fluoro-5-(trifluoromethyl)benzyl)pyridin-4-yl)-3-(hydroxymethyl)-1,5,6,7-tetrahydro-4H-pyrazolo[4,3-c]pyridin-4-one] gave a half-maximal effective concentration (EC50) of 39.8 nM. Under setting [1], this molecule gave a maximal effect (Emax) of 93%.
`CC1Cc2c(cnn2-c2ccnc(Cc3cc(F)cc(C(F)(F)F)c3)c2)C(=O)N1` (stereo not drawn) [Example 40, 1-(2-(3-fluoro-5-(trifluoromethyl)benzyl)pyridin-4-yl)-6-methyl-1,5,6,7-tetrahydro-4H-pyrazolo[4,3-c]pyridin-4-one] had an EC50 of 100 nM. The molecule also displayed an Emax under setting [1] of 93%.
`O=C1NCCc2c1cnn2-c1ccnc(Cc2ccc(OC(F)F)c(F)c2)c1` [Example 63, 1-(2-(4-(difluoromethoxy)-3-fluorobenzyl)pyridin-4-yl)-1,5,6,7-tetrahydro-4H-pyrazolo[4,3-c]pyridin-4-one] had a concentration giving a half-maximal response (EC50) of 126 nM. Moreover, under setting [1], the Emax worked out at 70%.
The molecule `O=C1c2cnn(-c3ccnc(Cc4cc(F)cc(C(F)(F)F)c4)c3)c2CCN1CCO` [Example 105, 1-(2-(3-fluoro-5-(trifluoromethyl)benzyl)pyridin-4-yl)-5-(2-hydroxyethyl)-1,5,6,7-tetrahydro-4H-pyrazolo[4,3-c]pyridin-4-one] gave a concentration for a half-maximal effect (EC50) of 63.1 nM. Under setting [1], this molecule had an Emax of 97%.
As to `Cc1nn(-c2ccnc(Cc3cc(F)cc(C#N)c3)c2)c2c1C(=O)NCC2` [Example 85, 3-fluoro-5-((4-(3-methyl-4-oxo-4,5,6,7-tetrahydro-1H-pyrazolo[4,3-c]pyridin-1-yl)pyridin-2-yl)methyl)benzonitrile], the midpoint of the response, the EC50, lay at 63.1 nM. The maximum response (Emax) under setting [1] is 96%.
With `N#Cc1cc(Cc2cc(-n3ncc4c3CCNC4=O)ccn2)cc(C(F)(F)F)c1` [Example 33, 3-((4-(4-oxo-4,5,6,7-tetrahydro-1H-pyrazolo[4,3-c]pyridin-1-yl)pyridin-2-yl)methyl)-5-(trifluoromethyl)benzonitrile], the half-maximal effective concentration (EC50) is 3160 nM. Moreover, the Emax under setting [1] worked out at 58%.
Take `Cc1nn(-c2ccnc(Cc3cc(F)c(F)c(Cl)c3)c2)c2c1C(=O)NCC2` [Example 84, 1-(2-(3-chloro-4,5-difluorobenzyl)pyridin-4-yl)-3-methyl-1,5,6,7-tetrahydro-4H-pyrazolo[4,3-c]pyridin-4-one]: the Emax is 95% and the 50% effective concentration (EC50) was 2.51 nM.
As to `O=C1NCCCc2c1nnn2-c1ccnc(Cc2cc(F)cc(C(F)(F)F)c2)c1` [Example 97, 1-(2-(3-fluoro-5-(trifluoromethyl)benzyl)pyridin-4-yl)-5,6,7,8-tetrahydro-[1,2,3]triazolo[4,5-c]azepin-4(1H)-one], the EC50 was 2510 nM. Also, the maximum response (Emax) under setting [1] was found to be 90%.
As for `O=C1NCCc2c1nnn2-c1cc(Cc2cccc(C(F)(F)F)c2)ccn1` [Example 42, 1-(4-(3-(trifluoromethyl)benzyl)pyridin-2-yl)-1,5,6,7-tetrahydro-4H-[1,2,3]triazolo[4,5-c]pyridin-4-one], the EC50 is 794 nM. The maximal response (Emax) under setting [1] is 90%.
As to `O=C1NCCc2c1cnn2-c1ccnc(Cc2cccc(C(F)(F)F)c2)c1` [Example 22, 1-(2-(3-(trifluoromethyl)benzyl)pyridin-4-yl)-1,5,6,7-tetrahydro-4H-pyrazolo[4,3-c]pyridin-4-one], the midpoint of the response, the EC50, lay at 200 nM. Moreover, the maximal effect (Emax) under setting [1] came to 91%.
The corresponding values for `O=C1NCCc2c1cnn2-c1ccnc(Cc2cc(F)c(F)c(C(F)(F)F)c2)c1` [Example 64, 1-(2-(3,4-difluoro-5-(trifluoromethyl)benzyl)pyridin-4-yl)-1,5,6,7-tetrahydro-4H-pyrazolo[4,3-c]pyridin-4-one] are 20 nM and 94%.
`COc1ccc(Cc2cc(-n3ncc4c3CCNC4=O)ccn2)cc1C(F)(F)F` [Example 55, 1-(2-(4-methoxy-3-(trifluoromethyl)benzyl)pyridin-4-yl)-1,5,6,7-tetrahydro-4H-pyrazolo[4,3-c]pyridin-4-one] showed an EC50 of 398 nM. Further, the maximal effect (Emax) under setting [1] came to 69%.
On to `O=C1NCCc2c1ccn2-c1ccnc(Cc2cc(F)cc(C(F)(F)F)c2)c1` [Example 51, 1-(2-(3-fluoro-5-(trifluoromethyl)benzyl)pyridin-4-yl)-1,5,6,7-tetrahydro-4H-pyrrolo[3,2-c]pyridin-4-one], for which the midpoint of the response, the EC50, lay at 126 nM. Moreover, the maximum response (Emax) under setting [1] came out at 95%.
With `COc1cc(Cc2cc(-n3ncc4c3CCNC4=O)ccn2)cc(C(F)(F)F)c1` [Example 57, 1-(2-(3-methoxy-5-(trifluoromethyl)benzyl)pyridin-4-yl)-1,5,6,7-tetrahydro-4H-pyrazolo[4,3-c]pyridin-4-one], the midpoint of the response, the EC50, lay at 794 nM. Also, the maximal response (Emax) under setting [1] amounted to 44%.
For `N#Cc1cc(F)cc(Cc2cc(-n3ncc4c3CCNC4=O)ccn2)c1` [Example 96, 3-fluoro-5-((4-(4-oxo-4,5,6,7-tetrahydro-1H-pyrazolo[4,3-c]pyridin-1-yl)pyridin-2-yl)methyl)benzonitrile], in that order: 794 nM and 94%.
For `COc1cc(Cc2cc(-n3ncc4c3CCNC4=O)ccn2)ccc1C(F)(F)F` [Example 60, 1-(2-(3-methoxy-4-(trifluoromethyl)benzyl)pyridin-4-yl)-1,5,6,7-tetrahydro-4H-pyrazolo[4,3-c]pyridin-4-one], in that order: 398 nM and 83%.

(Values after US20230002374A1, “GPR52 MODULATOR COMPOUNDS” (Heptares Therapeutics Limited, priority 2019, published 2023).)
